According to patent US20140357553A1, “NUTRITIONAL COMPOSITION FOR WOUND HEALING” (Nestec S.A., priority 2003, published 2014):

Tested on: Normal human fibroblasts
Protocol: Normal human fibroblasts were trypsinised and seeded in 12 well plates at a density of […]. When confluent, the cells were transferred to a culture medium with an amino acid distribution and concentrations designed to mimic those in human serum as closely as possible. The cell cultures were divided into two categories, a control culture in which the culture medium contained 0.201 mM proline and an experimental sample in which the culture medium contained 0.592 mM proline. After 24 hours fibroblast-conditioned medium containing 100 microgram/ml beta-aminoproprionitrile to prevent cross-linking of collagen molecules in the cultures was collected. The conditioned medium was dotblotted to a nitrocellulose membrane and probed for collagen type I content with a polyclonal immune-absorbed antibody. The value shown for the proline-supplemented samples is relative to the controls set at 100%.

O=C(O)[C@@H]1CCCN1 [Proline, proline]
% of control value (collagen type I content) (0.502 mM proline in culture medium vs control medium with 0.201 mM proline set at 100%, conditioned medium collected after 24 hours): 150% ± 21.9% | increase in collagen synthesis (human fibroblasts, proline-supplemented medium vs control): 50%
